The data set in a line: Permeability for probe polymers and dyes, and its temperature dependence, by confocal imaging. The data set is classed as physicochemical. The following applies: independent of their charge. The method, then:
Monodisperse spheres (d=5.94 μm) of a weakly polymerized melamine-formaldehyde resin were used as templates (Microparticle GmbH). The particles were covered by alternating adsorption of sodium polystyrene sulfonate PSS (MW 70 000 g mol^−1, Aldrich) and polyallylamine hydrochloride PAH (MW 70 000 g mol^−1, Aldrich) from an aqueous solution of 10^−2 M PSS in 0.1 M sodium chloride. After 8 layers the core was dissolved in 0.1 M hydrochloric acid. The decomposition products were removed by washing with acid and an aqueous solution of 10^−2 M NaCl. Hollow polyelectrolyte capsules remained. […]
For the study of the permeability, fluorescence labeled polymers were used. […] The MW of the polymer was determined being 120 000 g/mol by gel permeation chromatography. […]
Laser scanning microscopy was performed for the determination of the loading grade of the capsules. […] The amounts of polymer/monomer in the interior were determined by integration of the fluorescence intensity inside the capsules. The exact concentration was taken from calibration curves, determined for each fluorescent probe separately. […]
The permeability of the capsules was studied for positively (PAH) and negatively charged (PSS), zwitterionic (albumine) and noncharged (dextran) fluorescent polymers (dextran). […] Then, the fluorescence intensity in the center of the capsules was measured by confocal imaging. […]

For rhodamine, the “penetration of the capsule wall by small dye molecules” value was “can penetrate the capsule wall”.

For `CN(C)c1ccc2cc3ccc(N(C)C)cc3nc2c1` [acridine orange], the “penetration of the capsule wall by small dye molecules” value is listed as “can penetrate the capsule wall”.
